Values quoted from earlier work, collected in PMC10855781 (International Journal of Molecular Sciences, 2024).

Key:
[1] = tested on: human colorectal adenocarcinoma (HT-29); settings: Table 2; ref [75]
From the text: Table 2 Comparative study of cytotoxic effects and cardiotoxicity elicited by selected GnRH-based anthracycline conjugates. || Table 3 In vivo tumor growth inhibition of a few relevant Dau-GnRH-III conjugates. | column: Cytostatic Effect (IC50: μM) on HT-29 cells

[2] = tested on: HT-29 tumor; settings: ref [18]
Method: In our group, we synthesized conjugates based on a heptapeptide (VHLGYAT) selected by Zhang et al. and tested them on HT-29 human colon adenocarcinoma. Since sequence modification may result in different oxime-linked Dau-amino acid fragments, a cathepsin B- labile spacer was incorporated to the N-terminal of the homing peptide. From the parent compound (Dau=Aoa-LRRY-VHLGYAT-NH2), the potential positions that can be substituted were selected using Ala-scan. […] Statistical analysis was performed by Mann-Whitney test. *, ** and *** mean significant at p < 0.05, p < 0.01 and p < 0.001, respectively. Adapted with permission from ref. [18]. 2019, Elsevier. TEXT PRINTED IN THE PICTURE: (a) Dau: Tumour weight (g): 16% | (a) Parent: Tumour weight (g): 35% | (a) G/F exchange: Tumour weight (g): 11% | (b) Dau: Liver weight (g): 72% | (b) Parent: Liver weight (g): 101% | (b) G/F exchange: Liver weight (g): 90% | (c) Dau: Prol ...

[3] = tested on: PC-3 human prostatic adenocarcinoma; parameters: method as in PMID 36834815; settings: s.c. PC-3; i.p. 10 mg Dau-content/kg every fifth day from day 9, five treatments; day 33; Dau 1 mg/kg, terminated day 26; ref [84]
From the text: This 14-mer peptide (Glp-[…]NH2), first discovered in the skin of the frog Bombina bombina, is associated with the gastrin-releasing peptide (GRP) as a mammalian counterpart. The bombesin receptor family comprises neuromedin receptor B (NMB-R, or BB1), gastrin-releasing peptide receptor (GRP-R, or BB2) and bombesin receptor subtype 3 (BRS-3, or BB3). Among them, GRP-R has been the most investig ...

For COc1cccc2c1C(=O)c1c(O)c3c(c(O)c1C2=O)C[C@@](O)(C(C)=O)C[C@@H]3O[C@H]1C[C@H](N)[C@H](O)[C@H](C)O1 [Dau, daunomycin], the IC50 [1] is given as 300 ± 200 nM, the “tumor weight reduction compared to the control group” value ([2]; conjugates 10 mg/kg Dau content i.p. days 13, 16, 20, 23, 27, end day 30, Dau 1 mg/kg days 13 and 20, sacrificed day 23) is given as 84% and the “decrease in liver weight vs controls” value ([2]; same experiment as E56) is given as 28%. The tumor volume inhibition [3] was “without showing a significant reduction”.
